# Measured values from patent US20180113115A1, “SCREENING ASSAYS BASED ON MAG AND/OR ABHD6 FOR SELECTING INSULIN SECRETION PROMOTING AGENT” (VAL-CHUM, LIMITED PARTNERSHIP, priority 2010, published 2018).
# What was measured:
# [1] = system: β-cell; conditions: inhibition of β-cell plasma membrane DAG lipase activity; cited from earlier work
# [2] = system: rat islets; conditions: lipolysis inhibition by pan-lipase inhibitors; cited from earlier work
# [3] = target: TRPV1-R (Homo sapiens, UniProt Q8NER1); conditions: both in vitro and in vivo; cited from earlier work
# Chain of TRPV1-R (Homo sapiens, UniProt Q8NER1) (Q8NER1 whole entry): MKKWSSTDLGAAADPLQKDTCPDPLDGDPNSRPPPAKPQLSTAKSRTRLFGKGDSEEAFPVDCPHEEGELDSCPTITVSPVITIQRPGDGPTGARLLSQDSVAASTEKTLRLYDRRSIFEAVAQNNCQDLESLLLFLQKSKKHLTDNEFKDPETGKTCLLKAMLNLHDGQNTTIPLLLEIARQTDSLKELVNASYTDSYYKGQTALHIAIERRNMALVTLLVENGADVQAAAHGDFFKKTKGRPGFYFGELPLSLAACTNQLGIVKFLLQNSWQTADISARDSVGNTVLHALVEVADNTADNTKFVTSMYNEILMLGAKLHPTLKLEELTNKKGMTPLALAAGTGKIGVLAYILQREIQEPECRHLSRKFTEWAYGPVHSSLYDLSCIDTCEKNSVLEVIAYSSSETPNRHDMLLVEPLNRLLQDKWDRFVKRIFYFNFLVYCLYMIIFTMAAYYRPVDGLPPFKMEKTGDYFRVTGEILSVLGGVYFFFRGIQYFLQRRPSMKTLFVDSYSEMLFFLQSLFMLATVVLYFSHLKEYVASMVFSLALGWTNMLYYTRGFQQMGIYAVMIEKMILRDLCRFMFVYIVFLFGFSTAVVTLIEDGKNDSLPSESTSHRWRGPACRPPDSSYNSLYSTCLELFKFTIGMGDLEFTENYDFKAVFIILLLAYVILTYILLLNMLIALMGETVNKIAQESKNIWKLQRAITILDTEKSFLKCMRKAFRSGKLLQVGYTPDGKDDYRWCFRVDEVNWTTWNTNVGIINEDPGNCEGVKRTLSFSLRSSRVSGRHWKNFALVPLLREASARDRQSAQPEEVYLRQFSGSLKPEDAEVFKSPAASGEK
# [4] = system: TRPV1-R; conditions: cited from earlier work
# [5] = system: INS 832/13 cells; test: Insulin secretion measurement in INS 832/13 cells (static incubation); assay type: cell-based
# Description: (§1) INS 832/13 cells (Hohmeir et al.) were cultured at 37° C. in a humidified atmosphere containing 5% CO2 in RPMI 1640 with sodium bicarbonate, supplemented with 10% (v/v) fetal calf serum (Wisent), 10 mM HEPES, pH 7.4, 2 mM L-glutamine, 1 mM sodium pyruvate and 50 μM β-mercaptoethanol (complete RPMI). Cells were grown to 80% confluence. Media were changed to RPMI 1640 containing 3 mM glucose supplemented as the complete RPMI 24 h prior to the experiments. Insulin secretion incubations were conducted in Krebs-Ringer bicarbonate buffer containing 10 mM HEPES, pH 7.4 (KRBH).
# INS 832/13 cells were washed in KRBH containing 1 mM glucose and 0.5% defatted BSA (KRBH 1G/0.5% BSA) and pre-incubated for 45 min in KRBH 1G/0.5% BSA in presence of pharmacological agents (at indicated concentrations) or vehicle (DMSO). […] When examining the effect of 2-AG, it was added to cells at 0 to 1 μM concentration at 2 mM and 10 mM glucose. Insulin secretion from INS 832/13 cells was measured from either 45-min or 2-h static incubations in KRBH containing various glucose concentrations, 0.5% defatted BSA and pharmacological agents or vehicle, with or without 35 mM KCl or 0.3 mM palmitate, as specified.
# [6] = system: INS 832/13 cells; test: [1-14C]-arachidonic acid incorporation into 1-AG and 2-AG; assay type: cell-based
# Description: FIG. 2A and FIG. 2B illustrate that glucose stimulates the incorporation of [1-^14C]-arachidonic acid into 1-AG and 2-AG in INS 832/13 cells. Incorporation of [1-^14C]-arachidonic acid (nmol/mg protein) is shown in function of various compounds. Results are shown for low (2 mM, 2G, white) and high (10 mM, 10G, dotted) glucose concentration. […] (n=6; *** p<0.001). Results are shown in nmol/mg protein for different cellular compounds (PL=phospholipids, 1-AG=1-monoarachidonylglycerol, 2-AG=2-monoarachidonylglycerol, NEFA=non-esterified fatty acids, 1,2-DAG=1,2-diacylglycerol, 1,3-DAG=1,3-diacylglycerol, TG=triacylglycerol).
# [7] = system: INS 832/13 cells; test: Effect of lipase inhibitors on [U-14C]-glucose incorporation into lipids; assay type: cell-based; conditions: 1 and 10 mM [U14C]-glucose, 50 μM orlistat
# Description: as §1
# INS 832/13 cells were incubated overnight at 11 mM [U-^14C]-glucose in RPMI medium in a CO2-incubator in order to pre-label all the lipids in the cells. Then the cells were washed in KRBH (1 mM [U-^14C]-glucose) and pre-incubated for 45 min in KRBH at 1 mM [U-^14C]-glucose to bring metabolism to basal level. After this, cells were further incubated for 2 h in KRBH at 1 and 10 mM [U-^14C]-glucose and the indicated inhibitors. […] Then the cells were washed rapidly and flash-frozen in liquid nitrogen and extracted for lipids. Lipids were separated by TLC and the associated radioactivity was quantified. Neutral lipids were separated on boric acid/silica gel-TLC, with two solvent systems, first petroleum ether: diethyl ether: acetic acid (70:30:1), followed by second solvent system up to half of the plates, chloroform: acetone: acetic acid (60:40:1). Phospholipids were separated with a solvent system, chloroform: methanol: water (65:25:4).
# [8] = target: ABHD12; conditions: cited from earlier work
# [9] = system: INS832/13 cell membrane extracts; test: 1-OG (MAG) hydrolysis by cell membrane extracts, released oleic acid by HPLC; assay type: biochemical; conditions: 50 μM 1-oleoylglycerol, 1 h at 30° C.
# Description: 8 μg of […] cell membrane extracts were incubated with 50 μM of MAG (1-oleoylglycerol) and the indicated inhibitors for 1 h at 30° C. Released oleic acid was measured by HPLC after Dole's extraction and derivatization with bromoacetaminophenone.
smiles,measurement,setting,value
O=C(NCCCCCCNC(=O)ON=C1CCCCC1)ON=C1CCCCC1 [RHC80267],GSIS,[1],lowered GSIS
"Cc1cc(C)[nH]n1 [3,5-dimethylpyrazole]",GSIS,[2],curtailed GSIS
COc1cc(CNC(=O)CCCC/C=C/C(C)C)ccc1O [capsaicin],insulin secretion and Ca2+ influx,[3],elevate insulin secretion and Ca^2+ influx
same,insulin resistance,[4]; administration of capsaicin,decrease insulin resistance
same,plasma insulin levels,[4]; in vivo,elevates plasma insulin levels
"CCCCCCCCCCC[C@@H](C[C@@H]1OC(=O)[C@H]1CCCCCC)OC(=O)[C@H](CC(C)C)NC=O [orlistat, tetrahydrolipstatin]",insulin secretion,"[5]; 100 μM orlistat, 2 and 10 mM glucose",curtails insulin secretion
same,glucose-stimulated insulin secretion (GSIS),"[5]; increasing glucose (5 and 10 mM), 10 μM WWL70, 50 μM orlistat, 1 μM JZL184",strongly inhibited GSIS
same,[1-14C]-arachidonic acid incorporation into 1-AG and 2-AG,[6],curtails
same,release of [U14C]-free fatty acids (FFA),[7]; 1 μM JZL184,almost completely lowered this release
same,glucose incorporation into phospholipids,[7]; 10 μM WWL70,None of the lipase inhibitors had any significant effect
same,glucose incorporation into 1-monoacylglycerol (1-MAG),"[7]; 10 μM WWL70, 1 μM JZL184",significantly lowered
same,glucose incorporation into 2-monoacylglycerol (2-MAG),"[7]; 10 μM WWL70, 1 μM JZL184",no effect
same,glucose incorporation into diacylglycerol (DAG),"[7]; 10 μM WWL70, 1 μM JZL184",Neither of the inhibitors had any effect
same,glucose incorporation into triglycerides (TG),"[7]; 10 μM WWL70, 1 μM JZL184",TG accumulated
same,GSIS,[2],curtailed GSIS
same,Ki,[8],< 100 nM
same,1-OG hydrolysis activity (released oleic acid),[9],inhibited the 1-OG hydrolysis activity
